Measurements: ChEMBL document CHEMBL2321780, “Fluorinated quinazolinones as potential radiotracers for imaging kinesin spindle protein expression” (2013)
Calls of active or inactive are those of the source. The calls are words filed in the database; no cut-off is given here.

Tests used:
SK-OV-3 [1] = assay: Cytotoxicity against human SKOV3 cells assessed as inhibition of KSP-mediated cell cycle progression after 44 hrs by MTT assay; type: functional; settings: SK-OV-3, 44 h
SK-OV-3 [2] = assay: Nonspecific cytotoxicity against human SKOV3 cells after 44 hrs by MTT assay; type: functional; settings: SK-OV-3, 44 h
PC-3 [3] = assay: Nonspecific cytotoxicity against human PC3 cells after 44 hrs by MTT assay; type: functional; settings: PC-3, 44 h
PC-3 [4] = assay: Cytotoxicity against human PC3 cells assessed as inhibition of KSP-mediated cell cycle progression after 44 hrs by MTT assay; type: functional; settings: PC-3, 44 h
MCF7 [5] = assay: Nonspecific cytotoxicity against human MCF7 cells after 44 hrs by MTT assay; type: functional; settings: MCF7, 44 h
MCF7 [6] = assay: Cytotoxicity against human MCF7 cells assessed as inhibition of KSP-mediated cell cycle progression after 44 hrs by MTT assay; type: functional; settings: MCF7, 44 h
DU-145 [7] = assay: Cytotoxicity against human DU145 cells assessed as inhibition of KSP-mediated cell cycle progression after 44 hrs by MTT assay; type: functional; settings: DU-145, 44 h
[8] = target: T1, Kinesin-like protein KIF2C (Homo sapiens) (UniProt Q99661); assay: Inhibition of MCAK (unknown origin)-mediated ATP hydrolysis assessed as residual activity at 10 uM after 10 to 20 mins by spectrophotometric analysis
T1 sequence (whole entry): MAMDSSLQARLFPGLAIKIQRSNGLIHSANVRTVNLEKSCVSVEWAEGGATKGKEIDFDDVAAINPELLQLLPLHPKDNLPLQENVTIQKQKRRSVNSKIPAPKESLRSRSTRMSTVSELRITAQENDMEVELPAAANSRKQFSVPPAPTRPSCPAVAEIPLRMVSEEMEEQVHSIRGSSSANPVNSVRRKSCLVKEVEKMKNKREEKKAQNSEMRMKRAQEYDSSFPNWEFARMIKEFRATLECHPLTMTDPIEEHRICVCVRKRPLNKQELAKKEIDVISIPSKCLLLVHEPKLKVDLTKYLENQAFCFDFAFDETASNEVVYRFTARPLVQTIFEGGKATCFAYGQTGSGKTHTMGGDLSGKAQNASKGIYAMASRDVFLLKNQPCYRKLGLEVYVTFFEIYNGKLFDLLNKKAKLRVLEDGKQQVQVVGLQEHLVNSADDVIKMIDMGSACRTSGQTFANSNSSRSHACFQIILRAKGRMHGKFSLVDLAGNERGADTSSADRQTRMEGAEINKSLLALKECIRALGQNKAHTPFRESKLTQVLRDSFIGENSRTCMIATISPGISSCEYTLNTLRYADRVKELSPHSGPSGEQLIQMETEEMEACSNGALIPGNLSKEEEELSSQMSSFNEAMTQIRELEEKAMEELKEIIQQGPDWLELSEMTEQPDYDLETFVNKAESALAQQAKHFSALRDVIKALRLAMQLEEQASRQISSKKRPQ

[9] = target: T2, Kinesin-like protein KIFC3 (Homo sapiens) (UniProt Q9BVG8); assay: Inhibition of KIFC3 (unknown origin)-mediated ATP hydrolysis assessed as residual activity at 10 uM after 10 to 20 mins by spectrophotometric analysis
T2 sequence (whole entry): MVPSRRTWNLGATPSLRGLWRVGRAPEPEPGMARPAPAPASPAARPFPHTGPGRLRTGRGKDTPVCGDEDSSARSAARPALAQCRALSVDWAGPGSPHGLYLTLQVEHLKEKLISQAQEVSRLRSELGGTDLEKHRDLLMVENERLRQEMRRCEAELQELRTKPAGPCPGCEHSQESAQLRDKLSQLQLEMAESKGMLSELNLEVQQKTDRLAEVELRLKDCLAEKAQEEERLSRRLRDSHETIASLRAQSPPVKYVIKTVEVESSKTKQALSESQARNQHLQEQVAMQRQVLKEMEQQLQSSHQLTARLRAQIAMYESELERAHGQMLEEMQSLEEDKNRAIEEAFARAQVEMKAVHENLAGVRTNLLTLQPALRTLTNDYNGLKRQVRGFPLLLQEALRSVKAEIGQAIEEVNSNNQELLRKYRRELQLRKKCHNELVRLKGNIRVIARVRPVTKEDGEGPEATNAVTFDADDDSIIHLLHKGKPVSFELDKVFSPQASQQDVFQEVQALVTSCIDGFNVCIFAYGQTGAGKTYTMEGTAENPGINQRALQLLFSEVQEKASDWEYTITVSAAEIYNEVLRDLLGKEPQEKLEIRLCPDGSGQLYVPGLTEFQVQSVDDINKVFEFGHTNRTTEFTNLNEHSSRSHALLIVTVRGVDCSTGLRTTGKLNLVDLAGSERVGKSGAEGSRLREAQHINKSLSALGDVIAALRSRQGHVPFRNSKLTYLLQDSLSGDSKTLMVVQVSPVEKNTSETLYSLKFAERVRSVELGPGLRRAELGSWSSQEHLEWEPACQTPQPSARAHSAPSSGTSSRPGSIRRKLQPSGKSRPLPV

[10] = target: Centromere-associated protein E (Homo sapiens) (UniProt Q02224); assay: Inhibition of CENP-E (unknown origin)-mediated ATP hydrolysis assessed as residual activity at 10 uM after 10 to 20 mins by spectrophotometric analysis
[11] = target: T3, Kinesin-1 heavy chain (Homo sapiens) (UniProt P33176); assay: Inhibition of KNH (unknown origin)-mediated ATP hydrolysis assessed as residual activity at 10 uM after 10 to 20 mins by spectrophotometric analysis
T3 sequence (whole entry): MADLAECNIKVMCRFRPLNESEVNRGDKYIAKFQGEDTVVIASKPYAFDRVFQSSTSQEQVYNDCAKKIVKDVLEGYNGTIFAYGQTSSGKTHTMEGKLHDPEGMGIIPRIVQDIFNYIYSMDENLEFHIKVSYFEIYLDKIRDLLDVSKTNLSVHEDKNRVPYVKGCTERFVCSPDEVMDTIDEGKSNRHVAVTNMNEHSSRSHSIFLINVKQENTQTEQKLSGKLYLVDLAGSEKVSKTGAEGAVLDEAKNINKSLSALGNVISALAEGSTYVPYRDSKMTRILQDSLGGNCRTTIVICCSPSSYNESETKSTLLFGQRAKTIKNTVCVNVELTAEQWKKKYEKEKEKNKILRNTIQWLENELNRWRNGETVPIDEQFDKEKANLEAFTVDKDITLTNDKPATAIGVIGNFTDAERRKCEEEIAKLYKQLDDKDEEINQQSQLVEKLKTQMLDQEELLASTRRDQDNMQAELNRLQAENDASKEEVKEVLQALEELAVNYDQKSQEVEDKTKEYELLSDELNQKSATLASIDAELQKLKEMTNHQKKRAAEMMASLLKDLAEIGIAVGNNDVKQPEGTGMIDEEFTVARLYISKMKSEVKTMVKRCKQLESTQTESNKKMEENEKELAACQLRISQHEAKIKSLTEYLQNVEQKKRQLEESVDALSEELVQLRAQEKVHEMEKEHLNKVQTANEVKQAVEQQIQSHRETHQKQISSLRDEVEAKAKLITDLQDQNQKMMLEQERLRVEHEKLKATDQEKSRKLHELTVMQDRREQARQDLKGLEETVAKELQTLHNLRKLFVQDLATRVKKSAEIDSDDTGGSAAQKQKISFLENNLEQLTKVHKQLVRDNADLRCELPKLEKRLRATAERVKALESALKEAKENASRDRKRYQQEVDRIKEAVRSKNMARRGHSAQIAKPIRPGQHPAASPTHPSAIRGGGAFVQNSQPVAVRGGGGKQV

SK-OV-3 [12] = assay: Cell cycle arrest in human SKOV3 cells assessed as monoaster phenotype at 100 nM after 22 hrs by confocal microscopic analysis; type: functional, cell-based
DU-145 [13] = assay: Nonspecific cytotoxicity against human DU145 cells after 44 hrs by MTT assay; type: functional; settings: DU-145, 44 h

Chain of Centromere-associated protein E (Homo sapiens) (Q02224 whole entry): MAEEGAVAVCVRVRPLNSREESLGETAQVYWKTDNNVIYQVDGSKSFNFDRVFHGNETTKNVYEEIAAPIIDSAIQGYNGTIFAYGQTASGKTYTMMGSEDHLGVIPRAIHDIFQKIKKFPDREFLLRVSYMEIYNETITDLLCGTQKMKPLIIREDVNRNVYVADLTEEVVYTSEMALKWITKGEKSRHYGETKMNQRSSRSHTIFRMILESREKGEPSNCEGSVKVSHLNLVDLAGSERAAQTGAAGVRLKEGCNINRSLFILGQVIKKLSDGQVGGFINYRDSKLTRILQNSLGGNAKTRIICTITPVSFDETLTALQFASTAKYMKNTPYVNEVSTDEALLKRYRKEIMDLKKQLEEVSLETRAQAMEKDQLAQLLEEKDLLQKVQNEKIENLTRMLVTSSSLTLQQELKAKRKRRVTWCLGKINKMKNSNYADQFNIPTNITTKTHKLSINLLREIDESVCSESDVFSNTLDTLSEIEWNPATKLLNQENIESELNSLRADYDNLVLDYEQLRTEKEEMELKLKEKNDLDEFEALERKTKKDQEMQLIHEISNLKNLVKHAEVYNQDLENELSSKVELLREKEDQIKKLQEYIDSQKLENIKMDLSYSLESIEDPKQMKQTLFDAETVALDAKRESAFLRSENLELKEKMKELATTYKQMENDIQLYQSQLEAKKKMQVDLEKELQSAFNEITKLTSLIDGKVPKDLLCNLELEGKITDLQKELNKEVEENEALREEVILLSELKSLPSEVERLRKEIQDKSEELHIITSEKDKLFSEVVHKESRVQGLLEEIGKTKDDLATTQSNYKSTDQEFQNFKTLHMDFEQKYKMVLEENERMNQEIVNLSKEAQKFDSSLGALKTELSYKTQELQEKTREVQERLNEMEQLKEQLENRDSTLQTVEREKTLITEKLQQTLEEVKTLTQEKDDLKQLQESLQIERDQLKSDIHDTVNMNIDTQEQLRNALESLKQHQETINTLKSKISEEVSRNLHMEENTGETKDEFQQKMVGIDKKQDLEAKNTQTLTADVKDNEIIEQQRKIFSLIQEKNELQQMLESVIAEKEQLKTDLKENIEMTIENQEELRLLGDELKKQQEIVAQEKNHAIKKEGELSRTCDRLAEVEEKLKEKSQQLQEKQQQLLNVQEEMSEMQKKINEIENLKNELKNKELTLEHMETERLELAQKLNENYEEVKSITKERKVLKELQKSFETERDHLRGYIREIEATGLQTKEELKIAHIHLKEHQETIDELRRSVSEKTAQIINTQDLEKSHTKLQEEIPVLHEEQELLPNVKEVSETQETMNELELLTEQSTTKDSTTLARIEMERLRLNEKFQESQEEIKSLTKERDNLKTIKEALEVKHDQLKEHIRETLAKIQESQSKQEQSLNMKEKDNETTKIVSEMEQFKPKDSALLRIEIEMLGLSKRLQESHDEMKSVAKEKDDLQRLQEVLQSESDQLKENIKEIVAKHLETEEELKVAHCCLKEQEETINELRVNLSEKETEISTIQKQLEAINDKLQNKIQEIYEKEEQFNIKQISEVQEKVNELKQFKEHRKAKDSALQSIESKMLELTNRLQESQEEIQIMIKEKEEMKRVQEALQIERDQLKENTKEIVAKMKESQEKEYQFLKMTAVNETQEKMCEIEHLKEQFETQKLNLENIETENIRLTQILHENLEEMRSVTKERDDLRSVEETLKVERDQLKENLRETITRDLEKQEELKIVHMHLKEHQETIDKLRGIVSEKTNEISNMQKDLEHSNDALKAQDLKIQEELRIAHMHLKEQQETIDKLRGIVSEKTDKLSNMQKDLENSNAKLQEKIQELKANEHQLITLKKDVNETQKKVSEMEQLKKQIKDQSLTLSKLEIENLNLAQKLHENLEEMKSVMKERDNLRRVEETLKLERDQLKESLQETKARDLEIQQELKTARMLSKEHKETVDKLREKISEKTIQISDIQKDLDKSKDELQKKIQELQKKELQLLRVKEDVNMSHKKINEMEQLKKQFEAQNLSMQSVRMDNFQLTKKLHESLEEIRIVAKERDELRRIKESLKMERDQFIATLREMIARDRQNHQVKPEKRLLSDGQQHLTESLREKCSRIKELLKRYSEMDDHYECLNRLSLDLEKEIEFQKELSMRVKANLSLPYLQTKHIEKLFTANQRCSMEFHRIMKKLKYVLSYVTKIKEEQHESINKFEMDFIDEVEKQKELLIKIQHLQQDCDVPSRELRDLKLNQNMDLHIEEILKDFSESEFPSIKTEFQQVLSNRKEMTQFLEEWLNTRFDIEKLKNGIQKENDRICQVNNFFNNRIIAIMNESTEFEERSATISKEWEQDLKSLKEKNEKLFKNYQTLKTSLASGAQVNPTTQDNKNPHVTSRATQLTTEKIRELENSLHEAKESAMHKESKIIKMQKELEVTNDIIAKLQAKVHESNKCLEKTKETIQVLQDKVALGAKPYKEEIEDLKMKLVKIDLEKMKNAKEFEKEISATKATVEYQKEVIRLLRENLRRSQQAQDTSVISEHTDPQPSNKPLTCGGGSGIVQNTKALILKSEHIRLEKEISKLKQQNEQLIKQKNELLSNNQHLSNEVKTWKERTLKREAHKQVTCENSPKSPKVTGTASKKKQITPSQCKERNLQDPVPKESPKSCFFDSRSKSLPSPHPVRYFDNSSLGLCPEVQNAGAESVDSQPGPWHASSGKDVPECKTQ

SMILES | GI50 (SK-OV-3 [1]) | GI50 (SK-OV-3 [2]) | GI50 (PC-3 [3]) | GI50 (PC-3 [4]) | GI50 (MCF7 [5]) | GI50 (MCF7 [6]) | GI50 (DU-145 [7]) | Activity [8] | Activity [9] | Activity [10] | Activity [11] | Activity (SK-OV-3 [12]) | GI50 (DU-145 [13])
CC(C)C(c1nc2cc(Cl)ccc2c(=O)n1Cc1ccccc1)N(CCCN)C(=O)c1ccccc1F (racemic) | 35.6 nM | 3100 nM | 350 nM | 1.9 nM | 1900 nM | 17.7 nM | 48.5 nM |  |  |  |  |  | 
CCOC(=O)C1=C(C)NC(=S)N[C@@H]1c1cccc(O)c1 |  |  |  |  |  |  |  | 97% | 98.3% | 97.7% | 98.5% |  | 
CC(C)[C@H](c1nc2cc(Cl)ccc2c(=O)n1Cc1ccccc1)N(CCCN)C(=O)c1cccc(F)c1 |  |  |  |  |  |  |  |  |  |  |  | Active | 
CC(C)C(c1nc2cc(Cl)ccc2c(=O)n1Cc1ccccc1)N(CCCN)C(=O)c1ccc(F)cc1 (racemic) | 2700 nM | 4300 nM | 6300 nM | 1100 nM | 2700 nM | 4000 nM | 1100 nM |  |  |  |  |  | 3100 nM
